Consider 6 molecules from US20260297060A1, “COMPOUNDS FOR THE DEGRADATION OF MUTANT BRAF” (C4 THERAPEUTICS, INC., priority 2023, published 2026).

Data set [1] can be described thus: Example 8 pharmacokinetics assay for PKPD study (plasma, tumor, liver). To be noted: 10 mg/kg, p.o., single dose; for concentration at 6 h / concentration at 12 h / concentration at 1 h / concentration at 24 h: mouse, po. It counts as in vivo, BALB/c nude mice. The procedure:
For the PK and PD study, agents were administered to BALB/c nude mice bearing A375 human melanoma xenografts tumors. encorafenib, Compound 8, Compound 26, Compound 38, and Compound 39 were dosed p.o. once on day 1. Encorafenib was dosed at 35 mg/kg, Compound 8, Compound 26, Compound 38, and Compound 39 were dosed at 10 mg/kg. This study was non-GLP.
The plasma samples were collected at predetermined time points for PK analysis. For non-termination plasma collection, blood samples were collected into the 1.5 mL Eppendorf tubes containing 3 μL of 0.5 M EDTA-K2. For termination plasma collection, the mice were euthanized at predetermined time points post the treatment and the blood samples were collected into the 1.5 mL Eppendorf tubes containing 15 μL of 0.5 M EDTA-K2. And then the anticoagulant blood samples were centrifuged at 2,500 g at 4° C. for 15 minutes. The plasma samples were separated into 2 aliquots. The 1st was used for PK analysis, and the 2nd served as backup. The samples were stored at −80° C. before bioanalysis.
The tumor samples were collected at predetermined time points for PK and WB analysis. The tumor was dissected out and split into 3 parts. The 1st part was used for PK analysis, the 2nd part was used for WB analysis and the last one served as backup for study. The samples were transferred into pre-labeled tubes and quickly froze in liquid nitrogen within 2 minutes after dissection. The samples were stored at −80° C. before bioanalysis.
(§1) Liver samples were collected at predetermined time points for PK analysis. The left lobe of the liver was dissected out and split into 2 parts. The 1st part was used for PK analysis and the 2nd part served as the backup for the study. The samples were transferred into pre-labeled tubes and quickly froze in liquid nitrogen within 2 minutes after dissection. The samples were stored at −80° C. before bioanalysis.
The harvested plasma and liver samples were processed for pharmacokinetics analysis by LC-MS/MS with a concentration range of 0.200~200 ng/mL for encorafenib in plasma and liver homogenate, and 0.100-100 ng/ml in tumor homogenate, 1.00-1000 ng/mL for Compound 8 in plasma and 0.500~500 ng/ml in tumor and liver homogenate, 50.0~50,000 ng/mL for Compound 26 and Compound 38 in plasma, 5.0~5000 ng/ml in liver and 2.00~2000 ng/ml in tumor homogenate, 1.00-1000 ng/mL for Compound 39 in plasma and 0.500~500 ng/mL in liver and tumor homogenate.

The next data set deals with A375 tumors. The data set can be described thus: In vivo efficacy, A375 xenograft tumor volume (Example 7). To be noted: oral, FIG. 14; for tumor regressions in the xenograft model: 10 mg/kg BID, A375 xenografts; for antitumor response compared with comparators dabrafenib or encorafenib: A375 human melanoma xenografts. On the set-up: species or system human A375 melanoma xenograft in female BALB/c nude mice. The procedure: FIG. 14 is a line graph showing in vivo efficacy of dabrafenib, Compound 141, Compound 118, Compound 156, and Compound 180 in the treatment of female BALB/c nude mice bearing A375 tumors. Mice were treated with vehicle (10 μL/g, p.o., BID), dabrafenib (100 mg/kg, p.o., QD), Compound 141 (10 mg/kg, p.o., QD), Compound 141 (10 mg/kg, p.o., BID), Compound 118 (10 mg/kg, p.o., BID), Compound 156 (10 mg/kg, p.o., BID), or Compound 180 (10 mg/kg, p.o., BID) by oral gavage (p.o.). Data points represent group mean change in tumor volume. Error bars represent standard error of the mean (SEM). The x-axis is the time measured in days and the y-axis is A375 tumor volume measured in mm^3. The experiment was conducted as described in Example 7.
On the technique in general: A xenograft is tissue or cells of one species grown in another, often human tumour cells in immunodeficient mice.

Data set [2] can be described thus: Example 7 pharmacokinetics assay for efficacy study (plasma, liver). The class given is in vivo, BALB/c nude mice. The settings on record: mouse, po, 10 mg/kg, p.o., BID × 14 days. As to the method: For efficacy study, agents were tested in the A375 human melanoma xenografts. Compound 118, Compound 156, and Compound 180 were administered to BALB/c nude mice bearing A375 xenografts from day 0 and dosed p.o. twice per day (BID). Compound 141 was administered from day 0 and dosed p.o. twice per day (BID) or dosed p.o. daily (QD) from day 1. Compound 141, Compound 118, Compound 156, and Compound 180 were dosed at 10 mg/kg for 14 days. The known BRAF inhibitor Dabrafenib was used as a positive control. Dabrafenib was administered from day 1 and dosed p.o. daily (QD) for 14 days and dosed at 100 mg/kg.
The plasma samples were collected at predetermined time points for PK analysis. The mice were euthanized at predetermined time points post the treatment. The blood samples were collected into the 1.5 mL Eppendorf tubes containing 15 μL of 0.5 M EDTA-K2. And then the anticoagulant blood samples were centrifuged at 2,500 g at 4° C. for 15 minutes. The plasma samples were separated into 2 aliquots. The 1st was used for PK analysis, and the 2nd served as backup. The samples were stored at −80° C. before bioanalysis.
as §1
The harvested plasma and liver samples were processed for pharmacokinetics analysis by LC-MS/MS with a concentration range of 0.500~500 ng/mL for Dabrafenib in plasma and liver homogenate, 20.0~20,000 ng/mL for Compound 141, Compound 180 and Compound 118 in plasma and liver, 10.0~10,000 ng/mL for Compound 156 in plasma and liver.

The mark [3] stands for this setting: liver, 6 h, read-out: Concentration in Liver (mean ± SEM).
The mark [4] stands for this setting: liver, 12 h, read-out: Concentration in Liver (mean ± SEM).
Setting [5] is: plasma, 1 h, read-out: Concentration in Plasma (mean ± SEM).
Setting [6] is: plasma, 6 h, read-out: Concentration in Plasma (mean ± SEM).
[7] abbreviates: plasma, 12 h, read-out: Concentration in Plasma (mean ± SEM).
Setting [8] is: plasma, 24 h, read-out: Concentration in Plasma (mean ± SEM).
Where [9] appears, read: tumor, 1 h, read-out: Concentration in Tumor (mean ± SEM).
Setting [10] is: tumor, 6 h, read-out: Concentration in Tumor (mean ± SEM).
The mark [11] stands for this setting: tumor, 12 h, read-out: Concentration in Tumor (mean ± SEM).
Setting [12] is: tumor, 24 h, read-out: Concentration in Tumor (mean ± SEM).
Setting [13] is: liver, read-out: Concentration in Liver (mean ± SEM).
Setting [14] is: plasma, read-out: Concentration in Plasma (mean ± SEM).

SMILES strings stand for the structures. Where two headings read alike, the source gives them in different places.

On to `CCN(C)S(=O)(=O)Nc1ccc(F)c(Oc2ccc3ncn(C4CC5(CCN(C6CCC(c7cc8c(cc7F)c(N7CCC(=O)NC7=O)nn8C)CC6)CC5)C4)c(=O)c3c2)c1C#N` (single isomer, unassigned) [Compound 8, 6-[2-cyano-3-[[ethyl(methyl)sulfamoyl]amino]-6-fluoro-phenoxy]-3-[7-[4-[3-(2,4-dioxohexahydropyrimidin-1-yl)-5-fluoro-1-methyl-indazol-6-yl]cyclohexyl]-7-azaspiro[3.5]nonan-2-yl]-4-oxo-quinazoline], for which the concentration at 6 h in data set [1] (setting [3]) worked out at 379 ± 79.8 ng/g; in data set [1] (setting [6]), 339 ± 60.3 ng/mL; in data set [1] (setting [10]), 139 ± 21.7 ng/g. Further, the concentration at 12 h in data set [1] (setting [4]) stood at 74.8 ± 11.3 ng/g; in data set [1] (setting [7]), 64.7 ± 16.8 ng/mL; in data set [1] (setting [11]), 39.1 ± 5.77 ng/g. In addition, the concentration at 1 h turned out to be 2940 ± 149 ng/mL in data set [1] (setting [5]) and 394 ± 17.6 ng/g in data set [1] (setting [9]). Also, the concentration at 24 h was 1.27 ± 0.2 ng/mL in data set [1] (setting [8]) and 8.52 ng/g in data set [1] (setting [12]).
On to `CCN(C)S(=O)(=O)Nc1ccc(F)c(Oc2ccc3ncc(OCC4CCN(C5CCC(c6cc7c(cc6F)c(N6CCC(=O)NC6=O)nn7C)CC5)CC4)nc3c2)c1C#N` (single isomer, unassigned) [Compound 118, 7-[2-cyano-3-[[ethyl(methyl)sulfamoyl]amino]-6-fluoro-phenoxy]-2-[[1-[4-[3-(2,4-dioxohexahydropyrimidin-1-yl)-5-fluoro-1-methyl-indazol-6-yl]cyclohexyl]-4-piperidyl]methoxy]quinoxaline], for which, in the data set on A375 tumors, the “tumor regressions in the xenograft model” value is on record as “profound tumor regressions” and the “antitumor response compared with comparators dabrafenib or encorafenib” value was “more robust antitumor response”. Also, in data set [2] (setting [13]), the concentration at 6 h came out at 102000 ± 1600 ng/g. Moreover, in data set [2] (setting [14]), the concentration at 6 h was determined as 4160 ± 503 ng/mL.
`CCN(C)S(=O)(=O)Nc1ccc(F)c(Oc2ccc3ncn([C@H]4COC5(CCC(N6CCC(c7cc8c(cc7F)c(N7CCC(=O)NC7=O)nn8C)C(F)(F)C6)CC5)C4)c(=O)c3c2)c1C#N` (single isomer, unassigned) [Compound 39]: the “Concentration in Plasma (mean ± SEM)” value worked out at 34700 ± 3785 ng/mL in data set [1] (1 h, 60 min); 15700 ± 1358 ng/mL in data set [1] (6 h, 360 min); 3973 ± 202 ng/mL in data set [1] (12 h, 720 min); 171 ± 20.8 ng/mL in data set [1] (24 h, 1440 min). In addition, the “Concentration in Tumor (mean ± SEM)” value in data set [1] (1 h, 60 min) is on record as 3423 ± 648 ng/g; in data set [1] (6 h, 360 min), 4713 ± 256 ng/g; in data set [1] (12 h, 720 min) it was 1510 ± 43.6 ng/g; in data set [1] (24 h, 1440 min) it was 79.3 ± 25.3 ng/g. For the same molecule, the “Concentration in Liver (mean ± SEM)” value in data set [1] (6 h, 360 min) is 18200 ± 1735 ng/g; in data set [1] (12 h, 720 min), 5610 ± 455 ng/g.
As for `CCN(C)S(=O)(=O)Nc1ccc(F)c(Oc2ccc3ncn([C@H]4COC5(CCN(C6CC7(C6)CN(c6cc8c(cc6F)c(N6CCC(=O)NC6=O)nn8C)C7)CC5)C4)c(=O)c3c2)c1C#N` [Compound 26, (3R)-3-[6-[2-cyano-3-[[ethyl(methyl)sulfamoyl]amino]-6-fluoro-phenoxy]-4-oxo-quinazolin-3-yl]-8-[2-[3-(2,4-dioxohexahydropyrimidin-1-yl)-5-fluoro-1-methyl-indazol-6-yl]-2-azaspiro[3.3]heptan-6-yl]-1-oxa-8-azaspiro[4.5]decane], the figures for the concentration at 6 h in data set [1] (setting [3]), in data set [1] (setting [6]) and in data set [1] (setting [10]) were 11800 ± 551 ng/g, 20800 ± 2930 ng/mL and 3770 ± 478 ng/g, respectively. The concentration at 12 h in data set [1] (setting [4]) is 3250 ± 601 ng/g; in data set [1] (setting [7]), 4600 ± 1140 ng/mL; in data set [1] (setting [11]), 1400 ± 226 ng/g. Further, the concentration at 1 h in data set [1] (setting [5]) came to 29100 ± 733 ng/mL; in data set [1] (setting [9]) it was 1900 ± 320 ng/g. Further, the results for the concentration at 24 h in data set [1] (setting [8]) and in data set [1] (setting [12]) were 162 ± 15.3 ng/mL and 64.9 ± 19.9 ng/g, respectively.
For `CCN(C)S(=O)(=O)Nc1ccc(F)c(Oc2ccc3ncn(C4CC5(CCN(C6CCN(c7cc8c(cc7F)c(N7CCC(=O)NC7=O)nn8C)CC6)CC5)C4)c(=O)c3c2)c1C#N` [Compound 156, 6-[2-cyano-3-[[ethyl(methyl)sulfamoyl]amino]-6-fluoro-phenoxy]-3-[7-[1-[3-(2,4-dioxohexahydropyrimidin-1-yl)-5-fluoro-1-methyl-indazol-6-yl]-4-piperidyl]-7-azaspiro[3.5]nonan-2-yl]-4-oxo-quinazoline], in the data set with A375 tumors, the “tumor regressions in the xenograft model” value is listed as “profound tumor regressions” and the “antitumor response compared with comparators dabrafenib or encorafenib” value is on record as “more robust antitumor response”. Also, the concentration at 6 h in data set [2] (setting [13]) came out at 1840 ± 305 ng/g. Further, in data set [2] (setting [14]), the concentration at 6 h turned out to be 1870 ± 359 ng/mL.
Regarding `CCN(C)S(=O)(=O)Nc1ccc(F)c(Oc2ccc3ncn([C@H]4COC5(CCC(N6CCC(c7cc8c(cc7F)c(N7CCC(=O)NC7=O)nn8C)C(F)(F)C6)CC5)C4)c(=O)c3c2)c1C#N` (single isomer, unassigned) [Compound 38], in data set [1] (12 h, 720 min), the “Concentration in Liver (mean ± SEM)” value is 11243 ± 2595 ng/g. For the same molecule, the “Concentration in Plasma (mean ± SEM)” value in data set [1] (24 h, 1440 min) was 1797 ± 63.3 ng/mL. In addition, the “Concentration in Tumor (mean ± SEM)” value in data set [1] (24 h, 1440 min) came to 369 ± 42.6 ng/g. Further, the concentration at 6 h was 25500 ± 3820 ng/g in data set [1] (setting [3]), 16400 ± 1500 ng/mL in data set [1] (setting [6]) and 3830 ± 736 ng/g in data set [1] (setting [10]). Also, the concentration at 1 h in data set [1] (setting [5]) came to 32000 ± 3960 ng/mL; in data set [1] (setting [9]), 3320 ± 523 ng/g. In addition, the concentration at 12 h in data set [1] (setting [7]) amounted to 6810 ± 795 ng/mL; in data set [1] (setting [11]), 1990 ± 415 ng/g.
